Data set [1] in a line: Solubility of drugs in plain buffer and in PPO-PEG multi-arm block copolymer 10050 formulation. The note with it: thermodynamic from solid; for solubility: aqueous buffer, phosphate buffer, 0.1 M, pH 7.4, read-out: Solubility of Drug in Plain Buffer; for solubility at 2 h: aqueous with cosolvent or surfactant or cyclodextrin, 50 mg PPO-PEG block copolymer 10050/drug formulation, 10 wt. % drug loading, in 1 ml phosphate buffer 0.1 M pH 7.4, 0.2 μm filtered. It counts as physicochemical. Here is the method: After two hours of mixing, the mixture was filtered through 0.2 μm syringe filter. The drug concentration in the filtrate was determined by HPLC or UV using a standard curve.

Data set [2] can be described thus: Drug concentration by HPLC in drug-loaded 8-arm-PCL-PEG26kDa solution. It is filed as physicochemical. The note with it: 6 mg drug + 60 mg 8-arm-PCL-PEG26kDa (1/10) in 1 ml phosphate buffer 0.1 M pH 7.0, 0.2 μm filtered. Here is the method: The solution was dried under argon. The dried solid was heated at 55° C. for two hours under argon. The melt was then cooled to room temperature, placed under vacuum overnight, and reduced to small particles. To the particles was added 1 ml of phosphate buffer (0.1 M, pH 7.0), and the resulting mixture was filtered through 0.2 μm syringe filter.
The solution was dried under argon. The dried solid was heated at 55° C. for two hours under argon. The melt was then cooled to room temperature and placed under vacuum overnight, and reduced to small particles. To the particles was added 1 ml of phosphate buffer (0.1 M, pH 7.0). The resulting mixture was filtered through 0.2 μm syringe filter.

The conditions of data set [3]: drug-loaded 8-arm-PCL-PEG26kDa, phosphate buffer 0.1 M pH 7.0, 37° C., rp-HPLC. As for the experimental part:
At timed intervals, 10 μl of sample was withdrawn and diluted with phosphate buffer (0.1 M, pH 7.0). The solution was filtered through 0.2 μm syringe filter.
At timed intervals, 10 μl of sample was withdrawn and diluted with phosphate buffer (0.1 M, pH 7.0). The solution was filtered through 0.2 μm syringe filter. The filtrate was analyzed by rp-HPLC for paclitaxel concentration.

≈ marks a conversion by molar mass, not a printed value.

As usually defined, the solubility is the concentration that dissolves in the medium under given conditions. In the case of `Cn1cc(C2=C(c3cn(C)c4cc([N+](=O)[O-])ccc34)C(=O)NC2=O)c2ccc([N+](=O)[O-])cc21` [MNIPD, 3,4-di-[1-methyl 6-nitro-3-indolyl]-1H-pyrrole-2,5-dione], in data set [1], the solubility was < 0.5 µg/mL and the solubility at 2 h was 2600 µg/mL (≈ 5.84 mM).

In data set [1], `CCCC(=O)OCOC(=O)C(C)(C)C` [Pivaloyloxymethyl butyrate, pivaloyloxymethyl butyrate] had a solubility at 2 h of 12000 µg/mL (≈ 59.3 mM).

On to `COc1ccc2c(c1)c(CC(=O)O)c(C)n2C(=O)c1ccc(Cl)cc1` [Indomethacin, indomethacin], for which, in data set [1], the solubility stood at 88 µg/mL (≈ 0.246 mM) and the solubility at 2 h turned out to be 4000 µg/mL (≈ 11.2 mM).

For the compound `CC(=O)O[C@H]1C(=O)[C@@]2(C)[C@H]([C@H](OC(=O)c3ccccc3)[C@]3(O)C[C@H](OC(=O)[C@H](O)[C@@H](NC(=O)c4ccccc4)c4ccccc4)C(C)=C1C3(C)C)[C@]1(OC(C)=O)CO[C@@H]1C[C@@H]2O` [Paclitaxel, paclitaxel], in data set [1], the solubility was < 1 µg/mL and the solubility at 2 h came to 2000 µg/mL (≈ 2.34 mM). In data set [2], the “Drug concentration by HPLC” value is on record as “above 4.5 mg/ml”. Also, the “Soluble drug concentration in solution vs. time (FIGS. 8, 9)” value in data set [3] is “retain the paclitaxel in solution for an extended period of time”.

(Values after patent US6730334B2, “Multi-arm block copolymers as drug delivery vehicles” (Nektar Therapeutics AL, Corporation, priority 2001, dated 2004).)
